For one test, the target named is T1, adenosine A1 receptor (Rattus norvegicus, UniProt P25099).
T1 construct: Whole brain minus cerebellum and brainstem from male Long Evans rats; from tissue; host or cells: rat whole brain minus cerebellum and brainstem, membranes
T1 sequence (P25099 1-326): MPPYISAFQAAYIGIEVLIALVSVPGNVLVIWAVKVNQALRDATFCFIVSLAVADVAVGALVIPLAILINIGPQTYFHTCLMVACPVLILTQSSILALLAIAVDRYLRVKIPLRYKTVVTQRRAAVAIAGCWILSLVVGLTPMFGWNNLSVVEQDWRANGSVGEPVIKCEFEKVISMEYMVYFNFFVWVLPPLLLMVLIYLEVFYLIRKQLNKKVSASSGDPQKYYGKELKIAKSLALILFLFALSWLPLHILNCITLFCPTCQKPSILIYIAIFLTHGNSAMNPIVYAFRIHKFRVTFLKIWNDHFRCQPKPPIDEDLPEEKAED
Kind of test: Adenosine Receptor Binding--A1 Receptor Affinity (RBA1), [3H]-CHA displacement, rat whole brain membranes. To be noted: 1.0 nM [3H]-CHA, 25° C., one hour, read-out: IC50 for adenosine A1 receptor affinity (RBA-1). On the set-up: species or system rat (male Long Evans). On the procedure: Whole brain minus cerebellum and brainstem from male Long Evans rats (150-200 g) was homogenized in 30 volumes of ice-cold 0.05M Tris-HCl buffer pH 7.7 using a Brinkman Polytron PT-10, (setting number 6 for 20 seconds) and centrifuged for ten minutes at 20,000×g (Sorvall RC-2), 4° C. The supernatant was discarded, and the pellet was resuspended and centrifuged as before. The pellet was resuspended in 20 ml Tris-HCl buffer containing two International Units/ml of adenosine deaminase (Sigma type III from calf intestinal mucosa), incubated at 37° C. for 30 minutes, then subsequently at 0° C. for ten minutes. The homogenate was again centrifuged, and the final pellet was resuspended in ice-cold 0.05M Tris-HCl buffer pH 7.7 to a concentration of 20 mg/ml original wet tissue weight and used immediately.
Tissue homogenate (10 mg/ml) was incubated in 0.05M Tris-HCl buffer pH 7.7 containing 1.0 nM [^3 H]-N^6 -cyclohexyladenosine ([^3 H]-CHA) with or without test agents in triplicate for one hour at 25° C. Incubation volume was 2 ml. Unbound [^3 H]-CHA was separated by rapid filtration under reduced pressure through Whatman glass fiber (GF/B) filters. The filters were rinsed three times with 5 ml of ice cold 0.05M Tris-HCl buffer pH 7.7. The radio-labeled ligand retained on the filter was measured by liquid scintillation spectrophotometry after shaking the filters for one hour or longer on a mechanical shaker in 10 ml of Beckman Ready-Solv HP scintillation cocktail.
Nonspecific binding was defined as the binding which occurred in the presence of 1 mM theophylline. The concentration of test agent which inhibited 50% of the specific binding (IC50) was determined by nonlinear computer curve fit. The Scatchard plot was calculated by linear regression of the line obtained by plotting the amount of radioligand bound (pmoles/gram of tissue) versus [formula] […] The Hill coefficient was calculated by linear regression of the line obtained by plotting the log of the bound radioligand vs the log of the [formula] The maximal number of binding sites (Bmax) was calculated from the Scatchard plot.

Another test has as its target T2, adenosine A2 receptor (Rattus norvegicus, UniProt P30543).
T2 construct: Brains were thawed and then kept on ice while the striata were dissected out; tissue Pel-Freez (Rogers, Ark.); host or cells: rat striatum, membranes
Kind of test: Adenosine Receptor Binding--A2 Receptor Affinity (RBA2), [3H]NECA displacement, rat striatal membranes. On the set-up: species or system rat (Sprague-Dawley; Long-Evans). The conditions noted are these: 4 nM [3H]NECA, 50 nM N6-cyclopentyladenosine, 25° C., 60 min, read-out: IC50 for adenosine A2 receptor affinity (RBA-2). As for the experimental part: Brains from 200-500 g mixed sex Sprague-Dawley rats were purchased from Pel-Freez (Rogers, Ark.). Fresh brains from male Long-Evans hooded rats (Blue Spruce Farms, Altamont, NY) gave essentially identical results. Brains were thawed and then kept on ice while the striata were dissected out. Striata were disrupted in 10 vol of ice-cold 50 mM Tris.HCl (pH 7.7 at 25° C., pH 8.26 at 5° C.) (Tris) for 30 seconds in a Polytron PT-10 (Brinkmann) at setting 5. The suspension was centrifuged at 50,000×g for ten minutes, the supernatant discarded, the pellet resuspended in 10 vol ice-cold Tris as above, recentrifuged, resuspended at 1 g/5 ml, and stored in plastic vials at -70° C. (stable for at least six months). When needed, tissue was thawed at room temperature, disrupted in a Polytron, and kept on ice until used.
All incubations were for 60 minutes at 25° C. in 12×75 mm glass tubes containing 1 ml Tris with 5 mg original tissue weight of rat weight of rat striatal membranes, 4 nM [^3 H]-N-ethyl adenosine-5'-carboxamide ([^3 H]NECA), 50 nM N^6 -cyclopentyladenosine (to eliminate A1 receptor binding), 10 mM MgCl2, 0.1 units/ml of adenosine deaminase and 1% dimethylsulfoxide. N^6 -Cyclopentyladenosine was dissolved at 10 mM in 0.02N HCl and diluted in Tris. […]
Incubations were terminated by filtration through 2.4 cm GF/B filters under reduced pressure. […] Filters were put in scintillation vials, 8 ml of Formula 947 scintillation fluid added, and the vials left overnight, shaken, and counted in a liquid scintillation counter at 40% efficiency.
Nonspecific binding was defined as binding in the presence of 100 μM N^6 -cyclopentyladenosine, and specific binding was defined as total binding minus nonspecific binding. The IC50 was calculated by weighted nonlinear least squares curve-fitting to the mass-action equation. […]
Weighting factors were calculated under the assumption that the standard deviation was proportional to the predicted value of Y. Nonspecific binding was treated as a very large (inifinite) concentration of drug in the computer analysis.

The test system of the next test is rat heart. Put plainly: Coronary Blood Flow Evaluation: isolated perfused rat heart. To be noted: for activation at 1 µM / inhibition at 1 µM: 1 × 10^-6 Molar; for activation at 0.1 µM / inhibition at 0.1 µM: 1 × 10^-7 Molar; for activation at 0.01 µM / inhibition at 0.01 µM: 1 × 10^-8 Molar; for activation at 3 µM / inhibition at 3 µM: 3 × 10^-6 Molar; for activation at 0.3 µM / inhibition at 0.3 µM: 3 × 10^-7 Molar; for activation at 0.03 µM / inhibition at 0.03 µM: 3 × 10^-8 Molar. As for the experimental part:
The usefulness of the compounds of the present invention as agents effective to treat angina, is shown by their effectiveness in standard pharmacological test procedures, for example, in causing significant increase in coronary blood flow in rats. This test procedure is described in the following paragraphs.
Male rats (400-600 gms) are pretreated with Na heparin 2000 units and anesthetized with Na pentobarbital (50 mg/kg) administered intraperitoneally. Once anesthetized, the rat heart is rapidly excised, the ascending aorta fitted to the aortic perfusion cannula, and secured with a ligature. The coronary arteries were perfused initially at a rate of about 15 ml/min for two to three minutes, after which they are perfused at constant pressure of 70 mm Hg and temperature of 37° C. The electrocardiogram (ECG) is recorded using two platinum electrodes positioned at the base and apex of the left venticle. A second heart is excised, cannulated, and perfused by the same method outlined above. Both hearts are tested in parallel. The standard physiological salt solution (PSS) is a modified Krebs-Hanseleit bicarbonate buffer of the following composition in mM concentration: NaCl, 127; NaHCO3, 25; dextrose, 5.5; Na Pyruvate, 2.0; KCl, 4.7; MgSO4, 1.1; KH2 PO4, 1.2; CaCl2.2H2 O, 2.5; CaNa2 EDTA, 0.05.
A 30-minute stabilization period is observed before starting the test protocol.
The microprocessor control system is a servo mechanism which permits coronary perfusion pressure (CPP) and drug concentration to be maintained constant independent of changes in coronary flow. The level at which CPP and drug concentration are maintained can be changed by commands communicated through the microprocessor keyboard. Dose-response curves are carried out by perfusing concentrated drug solution (DC) at rates proportional to total coronary flow (CFT). Drug concentrations are increased by proportionate increases in the rate of DC infusion over CFT via the microprocessor keyboard. The proportional flow rates for DC:CFT is about 0.0002:1 at the low end and 0.02:1 at the high end of the dose-response curve. Dose-response curves encompassing at least two log doses are carried out by preparing two DCs with a concentration difference of 1:100. Following the first dose range of two log doses, the DC are switched, proportional pumping rate adjusted, and the dose-responsecurve continued for another two log doses. The standard dose-response curve is carried out in one-half log dose increments starting at a subthreshold dose and ending at a dose which produces near maximal response in activity. Standard reference compounds are tested over the range of 10^-9 to 10^-6 M.
Measurements are for heart rate (HR) and coronary flow (CF). Units are: HR, beats/minute (bpm) and CF, milliliters/minute (ml/min). HR is calculated from the ECG strip chart recording and CF is calculated by recording analog outputs from pumps 1 and 2. Outputs from pump #1=CFT and the output from pump #2=CF for heart B (CFB). CF for heart A (CFA) is calculated (CFT -CFB =CFA).
Using the above techniques, the effects of the compound of Examples 1, 2 and 3 are as follows indicating the compound of Example 3 is preferred to increase coronary blood flow.

The mark [1] stands for this setting: read-out: coronary flow (CF), % increase.
The mark [2] stands for this setting: read-out: heart rate (HR), % decrease.

T2 sequence (P30543 whole entry): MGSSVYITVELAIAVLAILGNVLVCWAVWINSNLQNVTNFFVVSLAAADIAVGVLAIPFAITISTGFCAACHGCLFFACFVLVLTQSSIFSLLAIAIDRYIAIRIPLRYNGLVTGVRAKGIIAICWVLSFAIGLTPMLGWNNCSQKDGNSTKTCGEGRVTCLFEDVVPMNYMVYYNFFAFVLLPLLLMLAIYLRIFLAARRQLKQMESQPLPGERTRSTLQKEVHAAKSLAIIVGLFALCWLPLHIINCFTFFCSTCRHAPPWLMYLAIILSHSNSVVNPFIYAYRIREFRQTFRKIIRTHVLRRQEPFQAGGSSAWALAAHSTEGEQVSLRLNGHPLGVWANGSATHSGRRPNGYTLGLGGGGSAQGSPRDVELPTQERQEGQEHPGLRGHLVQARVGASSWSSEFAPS

As to `OC[C@H]1O[C@@H](n2cnc3c(NC4Cc5cccc6cccc4c56)ncnc32)[C@H](O)[C@@H]1O` (stereo partly drawn) [Example 1, N^6 -Acenaphthyladenosine], the IC50 on adenosine A1 receptor is 0.64 µM. At adenosine A2 receptor, the half-inhibitory concentration (IC50) was found to be 0.95 µM. For the same molecule, in the test on rat heart (setting [1]), the activation at 1 µM was determined as 44%, the activation at 0.1 µM was determined as 27%, the activation at 0.01 µM came to 0% and the activation at 3 µM amounted to 49%. Further, in the test with rat heart (setting [1]), the activation at 0.3 µM turned out to be 40% and the activation at 0.03 µM came out at 7%. Moreover, in the test on rat heart (setting [2]), the inhibition at 1 µM worked out at 5%, the inhibition at 0.1 µM worked out at 2%, the inhibition at 0.01 µM was 1% and the inhibition at 3 µM is 8%. In the test with rat heart (setting [2]), the inhibition at 0.3 µM worked out at 2% and the inhibition at 0.03 µM was 0%.
As for `OC[C@H]1O[C@@H](n2cnc3c(NCC4=Cc5cccc6cccc4c56)ncnc32)[C@H](O)[C@@H]1O` [Example 2, N^6-(1-acenaphthylenylmethyl)adenosine], on adenosine A1 receptor, the half-maximal inhibitory concentration (IC50) was found to be 0.092 µM. Further, at adenosine A2 receptor, the 50% inhibitory concentration (IC50) came to 0.063 µM. Also, in the test on rat heart (setting [1]), the activation at 1 µM is 62%, the activation at 0.01 µM was found to be 37%, the activation at 0.3 µM is 60% and the activation at 0.03 µM was 48%. Besides, in the test on rat heart (setting [2]), the inhibition at 1 µM is 30%, the inhibition at 0.01 µM came to 1%, the inhibition at 0.3 µM is 25% and the inhibition at 0.03 µM came to 4%. Further, the activation at 0.001 µM in the test on rat heart (1 × 10^-9 Molar, read-out: coronary flow (CF), % increase) worked out at 2%. For the same molecule, the inhibition at 0.001 µM in the test on rat heart (1 × 10^-9 Molar, read-out: heart rate (HR), % decrease) is -1%. In the test with rat heart (3 × 10^-9 Molar, read-out: coronary flow (CF), % increase), the activation at 0.003 µM came out at 7%. Also, in the test on rat heart (3 × 10^-9 Molar, read-out: heart rate (HR), % decrease), the inhibition at 0.003 µM is -1%.
In the case of `OC[C@H]1O[C@@H](n2cnc3c(NCC4Cc5cccc6cccc4c56)ncnc32)[C@H](O)[C@@H]1O` (stereo partly drawn) [Example 3, N^6-[(1,2-Dihydro-1-acenaphthylenyl)methyl]adenosine], the IC50 at adenosine A1 receptor is 0.006 µM. Moreover, the IC50 on adenosine A2 receptor is 0.024 µM. Moreover, in the test with rat heart (setting [1]), the activation at 1 µM stood at 62%, the activation at 0.1 µM is 58%, the activation at 0.01 µM turned out to be 41% and the activation at 3 µM stood at 67%. In the test on rat heart (setting [1]), the activation at 0.3 µM worked out at 67% and the activation at 0.03 µM worked out at 49%. Also, in the test on rat heart (setting [2]), the inhibition at 1 µM came out at 65%, the inhibition at 0.1 µM was 36%, the inhibition at 0.01 µM turned out to be 2% and the inhibition at 3 µM came to 68%. In the test with rat heart (setting [2]), the inhibition at 0.3 µM was found to be 44% and the inhibition at 0.03 µM was 8%.
